Experimental data published in patent US20100311606A1, “PHARMACOGENOMIC CELL LINE PANEL AND USE THEREOF” (priority 2007, published 2010).

Tests used:
[1] = system: MDA-MB-231 breast cancer cells; assay: Cytotoxicity (MTS) after siRNA knockdown of NT5C3 or FKBP5; format: cell-based, human; conditions: for Change of drug sensitivity after FKBP5 siRNA: FKBP5 specific siRNA vs negative siRNA
Method: (§1) Specifically, once cells grew at an exponential phase, 90 μl of cell suspension were placed into a 96 well flat plate (Corning, Corning, N.Y.) at a density of 5×10^4 cells/well. […] Experiments were performed in triplicate for each concentration. Medium alone was used as a blank, and cells treated with DMSO were used as controls for every plate. At end of the incubation, 20 μl combined MTS/PMS solution were added into each well and incubated at 37° C. for an additional 1-2 hours. The amount of soluble formazan was measured with a SAFIRE™ microplate reader (Tecan A G, Switzerland). An absorbance for the control cells ranging from 0.8 to 1.3 was considered to meet the standard of cytotoxicity assays for the analysis. The final cell viability for each well was calculated using the following formula: relative survival cell number=absorbance (drug-treated cells−blank)/absorbance (control cells−[…]). During the entire process from cell culture to cytotoxicity analysis, all cell lines were grown exponentially without antibiotics and were handled by one person under the same condition to minimize the variation introduced by handling. The final dose-response curve for each cell line was plotted based on either 4 parameter logistic with top=100%, or 4 parameter logistic with bottom=0% using an R package. GI50 values at each concentration for each cell lines were then calculated based on the dose response curve. Twelve randomly selected lymphoblastoid cell lines were used to repeat the cytotoxicity studies three months later. In addition, to functionally characterize the effect of the candidate genes on the sensitivity to both drugs, drug cytotoxicity with human tumor cell lines also was analyzed using an MTS assay. The experimental procedures were similar to those for the lymphoblastoid cell lines, except that the cells were incubated overnight in 96 well plates before addition of the two drugs.
(§2) Transient transfection and RNA interference: The human breast cancer cell line, MDA-MB-231, and the human pancreatic cancer cell line, SU86, were used for siRNA studies. The LIPOFECTAMINE™ RNAiMAX reagent (Invitrogen, Carlsbad, Calif.) was used for transient transfection of siRNA according to the manufacturer's instructions. Briefly, cells were growing adhesively until they reached 30-50% confluence in a 6-well plate, and then transfected. siRNAs including NT5C3-siRNA, FKBP5-siRNA and Allstars negative control siRNA (Qiagen) at a final concentration of 50 nM, as well as 5 μL, of LIPOFECTAMINE™ RNAiMAX reagent, were preincubated with 250 μL, reduced serum medium (Invitrogen) for 5 minutes at room temperature before being mixed together. After incubation of the siRNA and LIPOFECTAMINE™ reagent mixtures for 20 minutes at room temperature, this mixture was added to cells in 2 ml culture medium supplied with 10% FBS. Cells were harvested for further assays 48 hours post-transfection.
(§3) Transient transfections were first performed with NT5C3 and FKBP5 specific siRNAs. Western blots verified that both genes were knocked down in both tumor cell lines (FIG. 21A and FIG. 22A). […] That relationship also was confirmed by knockdown experiments performed with FKBP5 specific siRNA.

[2] = system: SU86 pancreatic cancer cells; assay: as above; format: cell-based, human; conditions: for Change of drug sensitivity after FKBP5 siRNA: FKBP5 specific siRNA vs negative siRNA
Method: as §1, §2, §3

[3] = system: human lymphoblastoid cell lines; assay: Gemcitabine and AraC cytotoxicity assay (MTS/PMS), Human Variation Panel; format: cell-based; conditions: 197 cell lines; mean±SD; 72 hours; read-out: Average unadjusted LC50
Method: (§4) Specifically, once cells grew at an exponential phase, 90 μl of cell suspension were placed into a 96 well flat plate (Corning, Corning, N.Y.) at a density of 5×10^4 cells/well. […] Experiments were performed in triplicate for each concentration. Medium alone was used as a blank, and cells treated with DMSO were used as controls for every plate. At end of the incubation, 20 μl combined MTS/PMS solution were added into each well and incubated at 37° C. for an additional 1-2 hours. The amount of soluble formazan was measured with a SAFIRE™ microplate reader (Tecan A G, Switzerland). An absorbance for the control cells ranging from 0.8 to 1.3 was considered to meet the standard of cytotoxicity assays for the analysis. The final cell viability for each well was calculated using the following formula: relative survival cell number=absorbance (drug-treated cells−blank)/absorbance (control cells−[…]). […] GI50 values at each concentration for each cell lines were then calculated based on the dose response curve. […] In addition, to functionally characterize the effect of the candidate genes on the sensitivity to both drugs, drug cytotoxicity with human tumor cell lines also was analyzed using an MTS assay. […]

[4] = system: lymphoblastoid cell lines; assay: Intracellular active metabolites by HPLC after drug treatment; conditions: after AraC treatment
Method: To measure the intracellular metabolite levels in drug-treated lymphoblastoid cell lines, an HPLC assay was developed to measure AraCDP, AraCTP as well as dFdCDP and dFdCTP. […] Five×10^6 cells were centrifuged and washed with ice-cold phosphate buffered saline (PBS), followed by resuspension in 135 μL, of ice-cold PBS with 15 μL, of 100 μM AraCTP or dFdCTP as internal standards. Subsequently 50 μL, of 40% ice cold TCA was added, and the mixture was vortexed for 1 minute and chilled on ice for 20 minutes, followed by centrifugation. The supernatant was neutralized by adding 400 μL, of freshly prepared trioctylamine:trichlorotrifluoroethane (1:4). After centrifugation at 4° C. for 1 minute, the aqueous phase (nucleotide extract) was removed and stored at −20° C. for HPLC analysis.
Nucleotide analogue metabolites were separated from native nucleotides on a ZirChrom SAX HPLC column in HPLC assay. […] Mobile phase A was 10 mM K2HPO4 and 40 mM NaCl, pH 6.8. Mobile phase B was 100 mM K2HPO4 and 400 mM K2HPO4, pH 6.8. Detection was performed by monitoring the absorbance with a photo-diode array between 240-290 nm to obtain a typical chromatogram. The amount of intracellular metabolites in 5×10^6 cells was quantified with a standard curve prepared by spiking the 5×10^6 untreated control cells with pure compound, immediately followed by nucleotide extraction.

SU86 cells = assay: Caspase-3/7 activity assay in siRNA-transfected cells; format: cell-based, human; conditions: increasing drug concentrations, 72 hours, compared with negative siRNA
Method: (§5) Error bars represent SEM values for 3 independent experiments.
(§6) Caspase-3/7 activity assay: The caspase-3 activity of siRNA-transfected cells was detected according to the manufacture's protocol using CASPASE-GLO® 3/7 Assay kit (Promega BioSciences, San Luis Obispo, Calif.). Once a proluminescent caspase-3/7 substrate containing the tetrapeptide sequence DEVD is cleaved by caspase-3/7, it will release a substrate for luciferase (amino-luciferin). […] CASPASE-GLO® 3/7 Reagent (100 μl; an equal volume to the cell suspension) was added and incubated for 1 hour at room temperature, followed by detection of luminescence with a luminometer. Wells containing culture medium alone were used as controls.
(§7) One possibility would involve the blockade of apoptosis signaling pathways as a result of FKBP5 knock-down. FKBP5 has been reported to be involved in apoptosis through a calcineurin-dependent pathway (Giraudier et al. Blood (2002) 100:2932-2940). To test that hypothesis, caspase-3/7 activity assays were performed to determine whether alterations in FKBP5 expression might influence apoptotic signaling. […] Specific mechanisms by which FKBP5 might influence apoptosis will require future clarification.

MDA-MB-231 cells = assay: as above; format: cell-based, human; conditions: increasing drug concentrations, 72 hours, compared with negative siRNA
Method: as §5, §6, §7

[5] = system: lymphoblastoid cell lines; assay: Preliminary gemcitabine cytotoxicity, MTS assay, initial 71 cell lines; format: cell-based; conditions: Homo sapiens, read-out: IC50 values (the drug concentration that inhibited cell growth 50%), variation across initial 71 lymphoblastoid cell lines, 48 hours
Method: Gemcitabine cytotoxicity: Gemcitabine cytotoxicity after drug exposure is a major phenotype that is determined in the course of phenotype-genotype association studies for the lymphoblastoid cell lines. Increasing concentrations of gemcitabine are used to perform the cytotoxicity studies in a 96-well plate format. Approximately 5×10^5 lymphoblastoid cells are incubated overnight in each well before addition of the drug. The cells are then incubated for 48 hours with gemcitabine at 8 different concentrations, ranging from 10^−4 μM to 100 μM. Cytotoxicity is determined using the MTS assay. All studies are performed in triplicate, and both IC50 and LC50 values are calculated. To avoid confounding factors, cytotoxicity studies are performed with equal numbers of cell lines from each ethnic group in every experiment.
IC50 data have been obtained for 71 of 203 cell lines (the 71 cell lines for which Perlegen genome-wide SNP data is available). Significant variation in IC50 values was observed just for the initial 71 cell lines studied (FIG. 14). Each square in FIG. 14 represents an individual sample, and the colors represent different ethnic groups.

in vitro = format: cell-based; conditions: human
Method: as §4

thymidine kinase 2 (TK2) = molecular target: T1, thymidine kinase 2 (TK2) (Homo sapiens, UniProt O00142); conditions: as well as deoxycytidine; cited from earlier work
T1 sequence (O00142 34-265): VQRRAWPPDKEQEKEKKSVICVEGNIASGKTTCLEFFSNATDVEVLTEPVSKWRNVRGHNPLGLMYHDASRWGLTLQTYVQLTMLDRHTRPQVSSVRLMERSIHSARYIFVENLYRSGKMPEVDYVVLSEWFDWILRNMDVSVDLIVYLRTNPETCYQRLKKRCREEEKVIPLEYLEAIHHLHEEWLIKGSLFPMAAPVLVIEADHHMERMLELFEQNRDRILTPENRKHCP

[6] = system: patients with pancreatic cancer; conditions: patients treated with gemcitabine; cited from earlier work
[7] = average of 7 resistant cell samples
[8] = average of 7 sensitive cell samples
[9] = NT5C3 specific siRNA vs negative siRNA

Row | SMILES | Change of drug sensitivity after FKBP5 siRNA [1] | Change of drug sensitivity after FKBP5 siRNA [2] | CC50 [3] [nM] | AraCDP, Resistant, Average ± SEM [4, 7] | AraCTP, Resistant, Average ± SEM [4, 7] | AraCDP, Sensitive, Average ± SEM [4, 8] | AraCTP, Sensitive, Average ± SEM [4, 8] | caspase-3/7 activity in FKBP5 siRNA-treated cells (SU86 cells) | caspase-3/7 activity in FKBP5 siRNA-treated cells (MDA-MB-231 cells) | Change of drug sensitivity (dose response curve) after NT5C3 siRNA [1, 9] | Change of drug sensitivity (dose response curve) after NT5C3 siRNA [2, 9] | IC50 [5] [nM] | CC50 at 72 h (in vitro) [nM] | phosphorylation by TK2 relative to deoxycytidine (thymidine kinase 2 (TK2)) | patients with life expectancies of over one year [6]
1 | Nc1ccn([C@@H]2O[C@H](CO)[C@@H](O)[C@@H]2O)c(=O)n1 [AraC, cytosine arabinoside] | desensitized | desensitized | 8400 ± 14300 | 0.65 ± 0.13 | 2.62 ± 0.40 | 1.02 ± 0.18 | 4.43 ± 0.56 | significantly decreased | significantly decreased |  |  |  |  |  | 
2 | Nc1ccn([C@@H]2O[C@H](CO)[C@@H](O)C2(F)F)c(=O)n1 [gemcitabine, 2′,2′-difluorodeoxycytidine] | desensitized | desensitized |  |  |  |  |  | significantly decreased | significantly decreased | increased sensitivity | increased sensitivity | 4 to 80 | 25.3 ± 30.7 | 5-10% | approximately 20%
